Reference: patent US5622948A, “Pyrrole pyridazine and pyridazinone anti-inflammatory agents” (Syntex (U.S.A.) Inc., priority 1994, dated 1997)
Where “and” joins values, the source holds several entries; their conditions need not be identical. Equal values may be shown once.

Experiments:
COX II [1] = molecular target: T1, COX II (Homo sapiens, UniProt P35354); test: TxB2 production in human whole blood activated with lipopolysaccharide (COX II); assay type: cell-based; settings: 5 hr incubation with compound and 10 μg/ml LPS; RIA determination of TxB2; read-out: COX II IC50, inhibition of TxB2 production
T1 sequence (P35354 18-604): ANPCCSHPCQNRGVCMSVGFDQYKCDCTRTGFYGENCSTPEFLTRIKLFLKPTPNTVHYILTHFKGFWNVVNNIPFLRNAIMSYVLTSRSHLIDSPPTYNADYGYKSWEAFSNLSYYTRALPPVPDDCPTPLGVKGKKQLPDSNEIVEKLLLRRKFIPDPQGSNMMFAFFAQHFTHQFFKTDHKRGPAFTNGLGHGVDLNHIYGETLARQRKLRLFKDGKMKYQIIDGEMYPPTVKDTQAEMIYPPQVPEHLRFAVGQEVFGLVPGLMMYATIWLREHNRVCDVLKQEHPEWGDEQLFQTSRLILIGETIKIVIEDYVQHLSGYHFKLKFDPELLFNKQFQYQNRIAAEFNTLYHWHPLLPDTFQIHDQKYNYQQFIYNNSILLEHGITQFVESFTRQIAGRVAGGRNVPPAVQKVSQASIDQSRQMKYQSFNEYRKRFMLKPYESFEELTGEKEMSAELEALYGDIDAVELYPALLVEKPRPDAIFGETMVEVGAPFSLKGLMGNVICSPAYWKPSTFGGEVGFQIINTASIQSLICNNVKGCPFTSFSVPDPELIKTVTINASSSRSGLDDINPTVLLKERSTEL

[2] = tested on: adjuvant-induced arthritis; test: adjuvant-induced arthritis in the rat; assay type: in vivo
[3] = tested on: phenylquinone-induced writhing; test: Phenylquinone-induced Mouse Writhing Assay; assay type: in vivo; settings: 20 or 60 minutes prior to phenylquinone
Method: Analgetic activity is determined by the Phenylquinone-induced Mouse Writhing Assay, Hendershot, et al., J. Pharmacol. Exp. Ther., 125:237-240 (1959). This assay is one of several acute assays which have been used to assess the analgesic activity of NSAIDs. At the appropriate time after test material administration, phenylquinone is injected intraperitoneally to mice, inducing a series of characteristic "writhing" responses, which are counted between 10 and 20 minutes after phenylquinone injection.
In this assay, Compound (16), suspended in SSV, was tested over the dose range of 1-100 mg/kg administered 20 or 60 minutes prior to phenylquinone challenge.

[4] = tested on: adjuvant-induced arthritis pain; test: adjuvant-induced arthritis pain model in the rat; assay type: in vivo; settings: preliminary test at 0.1, 1.0, 10 and 30 mg/kg, read-out: doses at which significant and prolonged analgesia is obtained
Method: Compound (16) was also evaluated using an adjuvant-induced arthritis pain model in the rat, in which pain is assessed by eliciting a vocal response upon squeezing or flexing an inflamed ankle joint.

COX I [5] = molecular target: T2, COX I (Homo sapiens, UniProt P23219); test: TxB2 production in human whole blood activated with ionophore (COX I); settings: COX I IC50, inhibition of TxB2 production
T2 sequence (P23219 24-599): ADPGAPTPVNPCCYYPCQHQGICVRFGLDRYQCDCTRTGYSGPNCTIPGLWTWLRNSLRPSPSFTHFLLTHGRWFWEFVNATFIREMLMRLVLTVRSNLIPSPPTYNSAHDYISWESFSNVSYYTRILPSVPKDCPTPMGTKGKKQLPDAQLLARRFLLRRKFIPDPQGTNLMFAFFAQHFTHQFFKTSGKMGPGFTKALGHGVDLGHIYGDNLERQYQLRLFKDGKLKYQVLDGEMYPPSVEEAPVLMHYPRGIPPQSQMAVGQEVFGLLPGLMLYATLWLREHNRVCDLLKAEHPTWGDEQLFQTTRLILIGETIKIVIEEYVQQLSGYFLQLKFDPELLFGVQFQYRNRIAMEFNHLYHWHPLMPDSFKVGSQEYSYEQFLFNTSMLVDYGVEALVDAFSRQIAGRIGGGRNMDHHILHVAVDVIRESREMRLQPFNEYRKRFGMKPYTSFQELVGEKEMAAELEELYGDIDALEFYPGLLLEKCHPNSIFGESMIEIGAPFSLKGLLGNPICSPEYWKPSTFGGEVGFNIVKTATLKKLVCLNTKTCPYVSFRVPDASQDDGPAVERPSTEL

COX II [6] = molecular target: T1, COX II; test: PGE2 production in human foreskin fibroblasts stimulated with IL-1 and PMA; assay type: cell-based; design: A 1.8 Kb DNA fragment containing the coding region of human COX II was generated by PCR; made in house; host or cells: Sf9 insect cells, baculovirus; settings: read-out: COX II IC50, inhibition of PGE2 production
Method: (§1) A summary of activities of Compound (16) against COX I and COX II in cell-free enzyme preparations and whole cells is presented in Table 1. The following abbreviations are used: AA is arachidonic acid, IL-1 is interleukin 1, PMA is phorbol myristate acetate, A23187 is a calcium ionophore (Sigma), BSA is bovine serum albumin and LPS is a lipopolysaccharide (Sigma).
Human foreskin fibroblasts
(§2) 30 min incubation with Compound (16)
16 hr admulation with IL-1 and PMA
washing, transfer to fresh media
EIA determination of PGE2
16 hr stimulation with IL-1 and PMA
RIA determination of PGE2

COX I [7] = molecular target: T2, COX I; test: thromboxane B2 production in washed human platelets; assay type: cell-based; design: A 2 Kb fragment containing the coding region of COX I; made in house; host or cells: Sf9 insect cells, baculovirus (cDNA from Oxford Biomedical Research); settings: EIA, read-out: COX I IC50, inhibition of thromboxane B2 production
Method: as §1, §2
b) 10 min activation, 20 μM AA
EIA determination of TxB2

## Cc1cc(Cc2ccc(=O)[nH]n2)n(C)c1C(=O)c1ccc(Cl)cc1 [Compound 16, 6-[1,4-dimethyl-5-(4chloro-benzoyl)-1H-pyrrol-2-ylmethyl]-2H-pyridazin-3-one]
COX II [1]
  IC50: 4700 nM and 4560 nM
[2]; Rattus norvegicus, po, 408 h, based on the three assays
  ED40: 3.2 ± 2.6 mg/kg
[2]; first test, 2 mg/kg/day, oral bid 17 days
  inhibition of adjuvant-induced arthritis: 31%
[2]; first test, 5 mg/kg/day, oral bid 17 days
  inhibition of adjuvant-induced arthritis: 66%
[2]; second test, 2 mg/kg/day
  inhibition of adjuvant-induced arthritis: 43%
[2]; second test, 5 mg/kg/day
  inhibition of adjuvant-induced arthritis: 48%
[2]; second test, 10 mg/kg/day
  inhibition of adjuvant-induced arthritis: 52%
[2]; third test, 100 mg/kg
  maximum inhibition of adjuvant-induced arthritis: 80%
[3]; 100 mg/kg, in SSV
  inhibition of phenylquinone-induced writhing: 100%
[3]; Mus musculus, 1-100 mg/kg
  ED50: ~10 mg/kg
[4]
  minimal effective dose: ≥ 10 mg/kg
COX I [5]; 15 min incubation with compound, 30 min with A23187 (ionophore), RIA determination of TxB2
  IC50: 5600 nM
COX I [5]; 30 min incubation, 15 min activation, A23187, EIA determination of TxB2
  IC50: 3000 nM
COX II [6]; 30 min incubation, 10 min activation, 5 μM A23187, RIA determination of PGE2
  IC50: 120 nM and 170 nM and 140 nM
COX II [6]; 30 min incubation; a) 10 min activation with 5 μM A23187, EIA determination of PGE2
  IC50: ≤ 100 nM
COX II [6]; 30 min incubation; b) 10 min activation with 20 μM AA + FA-free BSA, EIA determination of PGE2
  IC50: ~2700 nM
COX I [7]; 30 min incubation; a) 10 min activation, A23187 (calcium ionophore)
  IC50: 2300 nM
COX I [7]; 30 min incubation; b) 10 min activation, 20 μM AA
  IC50: > 100000 nM
